Test results from US20240358693A1, “METHODS OF TREATING PAIN” (Aisa Pharma, Inc., priority 2023, published 2024).

Tested on: participants with SSc-RP
Test: Scleroderma Health Assessment Questionnaire (SHAQ): disability indices and visual analog scales
Assay type: in vivo, human
Conditions: for SHAQ Alternative Disability Index, Mean / SHAQ Alternative Disability Index, Median / SHAQ Standard Disability Index, Mean / SHAQ Standard Disability Index, Median: Patients with Diagnosis of SSc
Outline: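 Participants with SSc-RP completed the SHAQ at screening and each in-clinic visit. Standard and alternative disability indices (eight categories, 0–3; standard adjusts for aids/assistance) plus Raynaud's VAS on interference over the past 7 days. Reported as absolute change from baseline to end of each dosing period.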

[1] = Day 12, mITT Part A, SSc patients, cilnidipine 10 mg and/or tadalafil 5 mg as in the arm
[2] = Day 12, mITT Part A, SSc patients, cilnidipine 10 mg and/or tadalafil 5 mg as in the arm, subject 01-110 score excluded
[3] = Day 12, mITT Part A, SSc patients, cilnidipine 20 mg (+ tadalafil 5 mg in the combination arm)
[4] = In-Clinic Visit (Day 12), Cilnidipine 10 mg (N = 4), PP Population Part A
[5] = In-Clinic Visit (Day 12), Cilnidipine 20 mg (N = 4), PP Population Part A
[6] = In-Clinic Visit (Day 12), Pooled Cilnidipine 10 mg and Cilnidipine 10 mg + Tadalafil 5 mg (N = 9), PP Population Part A

For COCCOC(=O)C1=C(C)NC(C)=C(C(=O)OC/C=C/c2ccccc2)C1c1cccc([N+](=O)[O-])c1 (centres unmarked) [Cilnidipine, cilnidipine], the “SHAQ Visual Analogue Scale - Raynaud's, Change from Baseline, Mean” value [1] was 0.167, the “SHAQ Visual Analogue Scale - Raynaud's, Change from Baseline, Median” value [1] was −0.100 and the “SHAQ Visual Analogue Scale - Raynaud's, In-Clinic Visit (Day 12), Mean” value [1] was 2.300. For the same compound, the “SHAQ Visual Analogue Scale - Raynaud's, In-Clinic Visit (Day 12), Median” value [1] was 2.600, the “SHAQ Visual Analogue Scale - Raynaud's, Percent Change from Baseline, Mean” value [1] was 11.36% and the “SHAQ Visual Analogue Scale - Raynaud's, Percent Change from Baseline, Median” value [1] was −2.27%. The “SHAQ Visual Analogue Scale - Breathing Problems, Change from Baseline, Mean” value [2] was −0.400, the “SHAQ Visual Analogue Scale - Breathing Problems, Change from Baseline, Median” value [2] was 0.000 and the “SHAQ Visual Analogue Scale - Breathing Problems, In-Clinic Visit (Day 12), Mean” value [2] was 2.100. For the same compound, the “SHAQ Visual Analogue Scale - Breathing Problems, In-Clinic Visit (Day 12), Median” value [2] was 0.000, the “SHAQ Visual Analogue Scale - Breathing Problems, Percent Change from Baseline, Mean” value [2] was −16.00% and the “SHAQ Visual Analogue Scale - Breathing Problems, Percent Change from Baseline, Median” value [2] was −16.00%. The “SHAQ Alternative Disability Index, Change from Baseline, Mean” value [3] was −0.083, the “SHAQ Alternative Disability Index, Change from Baseline, Median” value [3] was −0.125 and the “SHAQ Alternative Disability Index, In-Clinic Visit (Day 12), Mean” value [3] was 0.125. The “SHAQ Alternative Disability Index, In-Clinic Visit (Day 12), Median” value [3] was 0.125, the “SHAQ Alternative Disability Index, Percent Change from Baseline, Mean” value [3] was −41.67% and the “SHAQ Alternative Disability Index, Percent Change from Baseline, Median” value [3] was −41.67%. For the same compound, the “SHAQ Visual Analogue Scale - Breathing Problems, Change from Baseline, Mean” value [3] was −0.833, the “SHAQ Visual Analogue Scale - Breathing Problems, Change from Baseline, Median” value [3] was −0.800 and the “SHAQ Visual Analogue Scale - Breathing Problems, In-Clinic Visit (Day 12), Mean” value [3] was 0.300. For the same compound, the “SHAQ Visual Analogue Scale - Breathing Problems, In-Clinic Visit (Day 12), Median” value [3] was 0.400, the “SHAQ Visual Analogue Scale - Breathing Problems, Percent Change from Baseline, Mean” value [3] was −5.56% and the “SHAQ Visual Analogue Scale - Breathing Problems, Percent Change from Baseline, Median” value [3] was −66.67%. For the same compound, the “SHAQ Visual Analogue Scale - Finger Ulcers, Change from Baseline, Mean” value [3] was −0.933, the “SHAQ Visual Analogue Scale - Finger Ulcers, Change from Baseline, Median” value [3] was 0.000 and the “SHAQ Visual Analogue Scale - Finger Ulcers, In-Clinic Visit (Day 12), Mean” value [3] was 0.867. The “SHAQ Visual Analogue Scale - Finger Ulcers, In-Clinic Visit (Day 12), Median” value [3] was 0.700, the “SHAQ Visual Analogue Scale - Finger Ulcers, Percent Change from Baseline, Mean” value [3] was 35.29% and the “SHAQ Visual Analogue Scale - Finger Ulcers, Percent Change from Baseline, Median” value [3] was 35.29%. The “SHAQ Visual Analogue Scale - Intestinal Problems, Change from Baseline, Mean” value [3] was 0.300, the “SHAQ Visual Analogue Scale - Intestinal Problems, Change from Baseline, Median” value [3] was 0.300 and the “SHAQ Visual Analogue Scale - Intestinal Problems, In-Clinic Visit (Day 12), Median” value [3] was 1.300. For the same compound, the “SHAQ Visual Analogue Scale - Intestinal Problems, Percent Change from Baseline, Mean” value [3] was 35.00%, the “SHAQ Visual Analogue Scale - Intestinal Problems, Percent Change from Baseline, Median” value [3] was 35.00% and the “SHAQ Visual Analogue Scale - Overall Disease Severity, Change from Baseline, Median” value [3] was −1.600. The “SHAQ Visual Analogue Scale - Overall Disease Severity, In-Clinic Visit (Day 12), Mean” value [3] was 1.033, the “SHAQ Visual Analogue Scale - Overall Disease Severity, In-Clinic Visit (Day 12), Median” value [3] was 1.200 and the “SHAQ Visual Analogue Scale - Overall Disease Severity, Percent Change from Baseline, Median” value [3] was −60.00%. The “SHAQ Visual Analogue Scale - Pain, Change from Baseline, Mean” value [3] was −1.100, the “SHAQ Visual Analogue Scale - Pain, Change from Baseline, Median” value [3] was −0.800 and the “SHAQ Visual Analogue Scale - Pain, In-Clinic Visit (Day 12), Mean” value [3] was 1.067. For the same compound, the “SHAQ Visual Analogue Scale - Pain, In-Clinic Visit (Day 12), Median” value [3] was 0.700, the “SHAQ Visual Analogue Scale - Pain, Percent Change from Baseline, Mean” value [3] was −52.56% and the “SHAQ Visual Analogue Scale - Pain, Percent Change from Baseline, Median” value [3] was −53.33%. For the same compound, the “SHAQ Visual Analogue Scale - Raynaud's, Change from Baseline, Median” value [3] was −1.100, the “SHAQ Visual Analogue Scale - Raynaud's, In-Clinic Visit (Day 12), Mean” value [3] was 1.033 and the “SHAQ Visual Analogue Scale - Raynaud's, In-Clinic Visit (Day 12), Median” value [3] was 1.100. For the same compound, the “SHAQ Visual Analogue Scale - Raynaud's, Percent Change from Baseline, Median” value [3] was −44.00%, the “SHAQ Alternative Disability Index, Mean” value [4] was 0.563 and the “SHAQ Alternative Disability Index, Median” value [4] was 0.500. The “SHAQ Standard Disability Index, Mean” value [4] was 0.656, the “SHAQ Standard Disability Index, Median” value [4] was 0.563 and the “SHAQ Alternative Disability Index, Mean” value [5] was 0.219. The “SHAQ Alternative Disability Index, Median” value [5] was 0.188, the “SHAQ Standard Disability Index, Mean” value [5] was 0.281 and the “SHAQ Standard Disability Index, Median” value [5] was 0.188. The “SHAQ Visual Analogue Scale - Finger Ulcers, Mean” value [6] was 0.389, the “SHAQ Visual Analogue Scale - Finger Ulcers, Median” value [6] was 0.000 and the “SHAQ Visual Analogue Scale - Intestinal Problems, Mean” value [6] was 1.217. For the same compound, the “SHAQ Visual Analogue Scale - Intestinal Problems, Median” value [6] was 0.700 and the “SHAQ Visual Analogue Scale - Overall Disease Severity, Mean” value [6] was 2.439.
